Experimental findings from US20190231785A1, “PHOSPHODIESTERASE INHIBITOR TREATMENT” (Cyrano Therapeutics, Inc., priority 2012, published 2019) are described below.

This assay deals with asthmatic patients. Nature of the assay: sGaw after dry powder inhalation, dose escalating single blind study (Examples 5 and 6). To be noted: 1 mg IBMX. As to the method: To test this theory, asthmatic patients are enrolled in a dose escalating single blind study. On arrival to the clinic, subjects are allowed to rest for 20 minutes before baseline measurements of FEV1 (six recordings) and sGaw (five recordings) are made. Subjects receive a dry powder dispenser loaded with a dose of 2 mg theophylline or a dry powder carrier. […] After each inhalation, measurements of sGaw are made at 1, 3, 5, 10, 15, 20, 25, and 30 minutes.
On completion of the last recording, subjects inhale a 200 μg dose of salbutamol from a metered inhaler and a further measurement of sGaw is made after 15 minutes. Subjects are also monitored for coughing and are questioned about the taste of the drug.
Asthmatic patients are enrolled in a dose escalating single blind study. On arrival to the clinic, subjects are allowed to rest for 20 minutes before baseline measurements of FEV1 (six recordings) and sGaw (five recordings) are made. Subjects receive a dry powder dispenser loaded with a dose of 1 mg IBMX formulated as a dry powder or a dry powder carrier. […] After each inhalation, measurements of sGaw are made at 1, 3, 5, 10, 15, 20, 25, and 30 minutes.
On completion of the last recording, subjects inhale a 200 μg dose of salbutamol from a metered inhaler and a further measurement of sGaw mad after 15 minutes. Subjects are also be monitored for coughing and are questioned about the taste of the drug.

Take `CC(C)Cn1c(=O)n(C)c(=O)c2[nH]cnc21` [IBMX, 3-isobutyl-1-methylxanthine]: the “increase in sGaw compared with 200 μg salbutamol” value was “comparable with that produced by salbutamol”; the “sGaw above the baseline measurement after 30 minutes” value was found to be 20%; the “time until sGaw baseline is reached” value is “one and a half”.
